Experimental data: patent publication US6416987B1, “Mutants of thymidylate synthase and uses thereof” (Sloan Kettering Institute for Cancer Research, priority 1997, dated 2002)
Read-outs that look alike come from different tables or passages of the source. One block for each compound: values may come before it.

What was measured:
[1] = in vivo; cited from earlier work
[2] = cited from earlier work
[3] = system: TS-negative FSthy21 cells transfected with I108F mutant human TS cDNA; assay type: cell-based, mouse
[4] = system: TS-negative FSthy21 cells transfected with F225W mutant human TS cDNA; assay type: cell-based, mouse; conditions: for Ratio of IC50 values for mutant/wt cells: F225W/clone (2) vs wild-type clone (1)
[5] = system: TS-negative FSthy21 cells transfected with F225L mutant human TS cDNA; assay type: cell-based, mouse; conditions: F225L/clone (3) vs wild-type clone (1)
[6] = system: TS-negative FSthy21 cells transfected with F225Y mutant human TS cDNA; assay type: cell-based, mouse; conditions: F225Y/clone (1) vs wild-type clone (1)
[7] = system: TS-negative FSthy21 cells transfected with L221A mutant human TS cDNA; assay type: cell-based, mouse; conditions: L221A/clone (2) vs wild-type clone (1)
[8] = system: TS-negative FSthy21 cells transfected with L221I mutant human TS cDNA; assay type: cell-based, mouse; conditions: L221I/clone (1) vs wild-type clone (1)
[9] = system: TS-negative FSthy21 cells transfected with L221S mutant human TS cDNA; assay type: cell-based, mouse; conditions: L221S/clone (2) vs wild-type clone (1)
[10] = system: TS-negative FSthy21 cells transfected with K47E mutant human TS cDNA; assay type: cell-based, mouse; conditions: K47E/clone (2) vs wild-type clone (1)
[11] = system: TS-negative FSthy21 cells transfected with D49G mutant human TS cDNA; assay type: cell-based, mouse; conditions: for Ratio of IC50 values for mutant/wt cells: D49G/clone (1) vs wild-type clone (1); for resistance, IC50 values greater than wild-type transfectants: D49G transfectants vs wild-type transfectants
[12] = system: TS-negative FSthy21 cells transfected with G52S mutant human TS cDNA; assay type: cell-based, mouse; conditions: for Ratio of IC50 values for mutant/wt cells: G52S/clone (3) vs wild-type clone (1); for resistance, IC50 values greater than wild-type transfectants: G52S transfectants vs wild-type transfectants
HT1080 cells = test: AG337 sensitivity of HT1080 (colony formation); assay type: cell-based, human; conditions: drug cytotoxicity assay
Procedure: The optimum concentration of AG337 for selection of resistant clones was determined as follows. The human fibrosarcoma HT1080 cells were seeded into 6-well plates at 100 cells per well and incubated at 37° C. with complete medium. Various concentrations of AG337 were added after 24 hours. Drug-containing medium was changed every 4 days and surviving colonies were counted after 14 days of drug treatment.

[13] = system: in situ TS activity in AG337-resistant HT1080 cell lines; test: Whole cell TS assay (tritium release); assay type: cell-based, human; conditions: resistant lines HT1080/1b, 2b, 1c, 2c, 1d, 2d, 6e at minimal AG337 concentration giving no detectable TS activity in HT1080
Procedure: Resistance to TS inhibitors was evaluated using the whole cell TS assay for several AG337-resistant sublines and parental cell line HT1080 as a control. […] For the absence of TS inhibitors, cells convert 2′-[5-^3H]-deoxyuridine to dTMP, releasing ^3H2O into the medium. The rate of dTMP synthesis in the presence or absence of drug was assessed at 0, 15, 30, 40 minutes, by measurement of [3H]2O release by charcoal-TCA (trichloroacetic acid) separation of ^3H2O from nucleosides and nucleotides. Radioactivity was quantitated using a liquid scintillation counter (Beckman LS5).
The effect of AG337 on whole cell in situ TS activity was measured by the tritium release assay in HT1080 cells and several resistant cell lines with putative mutations. The cell lines HT1080/1b, HT1080/2b, HT1080/1c, HT1080/2c, HT1080/1d, HT1080/2d and HT1080/6e were resistant to AG337. […] This method provided a rapid qualitative confirmation of whether or not a cell line is resistant to AG337.

[14] = system: mouse bone marrow cells (N.B.M.); test: CFU-GM / HPPCFU-C assay, N.B.M.; assay type: cell-based
[15] = system: mouse bone marrow cells transfected with wild type TS (TS161); test: CFU-GM / HPPCFU-C assay, marrow transfected with plasmid TS161; assay type: cell-based
Procedure: (§1) DNA into Mouse Bone Marrow Progenitor Cells Twenty micrograms of plasmid DNA (TS161 or TS175) and ten micrograms of DOTAP were diluted to 100 μl with HBS buffer and incubated at room temperature for 10 minutes. The mixture was added to 2×10^6 mouse bone marrow cells suspended in 0.5 ml of IMDM medium (in a 35 mm culture dish). After a 4 hour incubation at 37° C., 2 ml of IMDM with 30% FBS was added to each dish and the incubation was continued for 24 hours. […] Transfected cells prepared as described above were distributed into 10×35 mm dishes (3×10^5 cells in […] IMDM media/dish). […] Drug was added at the indicated concentration to each dish and the cells were cultured at 37° C. (5% CO2) for 10-14 days.

[16] = system: mouse bone marrow cells transfected with mutant TS (TS175); test: CFU-GM / HPPCFU-C assay, marrow transfected with plasmid TS175; assay type: cell-based
Procedure: as §1

[17] = molecular target: TS-negative FSthy21 cells transfected with I108A mutant human TS cDNA (Homo sapiens, UniProt P04818, P2L/I108A, cells depend on it); test: Growth inhibition assay (alamar Blue), I108A transfectants; conditions: read-out: IC50 values, 7-day exposure
Sequence of TS-negative FSthy21 cells transfected with I108A mutant human TS cDNA (Homo sapiens, UniProt P04818, P2L/I108A, cells depend on it) (P04818 whole entry P2L/I108A): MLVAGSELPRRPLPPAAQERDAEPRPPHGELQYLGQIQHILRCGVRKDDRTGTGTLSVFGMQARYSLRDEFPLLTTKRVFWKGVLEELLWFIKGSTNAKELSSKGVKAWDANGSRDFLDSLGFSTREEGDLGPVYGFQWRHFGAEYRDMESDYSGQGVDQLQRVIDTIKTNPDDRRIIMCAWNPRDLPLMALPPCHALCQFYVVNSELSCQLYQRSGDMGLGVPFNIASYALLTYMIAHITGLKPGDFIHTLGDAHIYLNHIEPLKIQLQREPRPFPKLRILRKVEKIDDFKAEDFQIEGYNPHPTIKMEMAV
Procedure: (§3) The mouse TS-negative FSthy21 cells were used as the host for DNA transfections. This cell line, which is a TS-deficient derivative of mouse FM3A cells, was routinely maintained in MEM medium supplemented with 10% fetal bovine serum and 10×10^−5 M thymidine. Transfections were performed by DOTAP, using 10 μg of DNA/culture. Four days after transfection, cells were placed in selective medium, which contain no thymidine and reduced folate. Colonies having the ability to grow in the absence of thymidine were pooled and propagated as a mass culture.
(§4) Logarithmically growing suspension mouse TS-20 negative FSthy21 cells transfected with wild-type or variant human TS cDNA were seeded in 96-well plates at 1,000 cells/well in 180 μl of complete medium. […] Cell viability was measured by the alamar Blue™ assay. This method incorporates an oxidation-reduction (REDOX) indicator that both fluoresces and changes color in response to chemical reduction of growth medium resulting from cell growth. To above 96-well cultured cells, 25 μl of Alamar Blue (Alamar, Sacramento, Calif.) (10% of incubation volume) were added according to the manufacturer's instructions. The culture 96-well plates were then incubated at 37° C. for 4 hours. Viable cells induce chemical reduction of the media which results in a change in REDOX color from blue to red. The intensity of red color (and fluoresces) is proportional to the viable cells. After incubation, fluorescence is was read at 530-560 nm excitation wavelength and 590 nm emission wavelength by an automated plate reader (model EL340; Bio-Tek). Drug concentrations needed to reduce cell growth by 50% (IC50 values) were determined graphically by plotting of cell growth verses inhibitor concentration.
(§5) The effect of three antifolates and FdUrd on the growth characteristics of transfectants that stably express various TS proteins was evaluated by cytotoxicity studies. Cell growth was measured by the alamar blue assay. IC50 values were calculated as the concentration of inhibitor required to inhibit growth by 50% compared to wild-type transfected cells grown under identical conditions.

[18] = system: TS-negative FSthy21 cells transfected with I108A mutant human TS cDNA; test: as above
Procedure: as §3, §4, §5

Normal Bone Marrow cells = test: CFU-GM assay, Normal Bone Marrow (retroviral vector study); assay type: cell-based, murine; conditions: 10 days
Excerpt: (§2) The following tables 15-17 summarize additional proof that these mutants confer resistance to chemotherapeutic agents by increasing the number of drug resistant CFU-GM colonies formed by murine bone marrow cells infected with retroviral vectors containing these mutant TS cDNAs.

[19] = system: murine bone marrow cells infected with Wt TS vector; test: CFU-GM assay, marrow infected with Wt TS retroviral vector; assay type: cell-based; conditions: 10 days
[20] = system: murine bone marrow cells infected with G52S mut-TS vector; test: CFU-GM assay, marrow infected with G52S mut-TS retroviral vector; assay type: cell-based; conditions: 10 days
Excerpt: as §2

[21] = molecular target: TS-negative FSthy21 cells transfected with wild-type human TS cDNA (Homo sapiens, UniProt P04818, P2L, cells depend on it); test: Growth inhibition assay (alamar Blue), TS-negative cells transfected with wild-type human TS cDNA; assay type: cell-based, mouse; conditions: FdUrd, 7-day exposure, read-out: IC50 values
Sequence of TS-negative FSthy21 cells transfected with wild-type human TS cDNA (P04818 whole entry P2L): as the sequence (P04818 whole entry P2L/I108A) above, with A108I counted along it

Compound: C#CCN(Cc1ccc2nc(N)[nH]c(=O)c2c1)c1ccc(C(=O)N[C@@H](CCC(=O)O)C(=O)O)cc1 [CB3717, N^10-propargyl-5,8-dideazafolic acid]
- toxicity in Phase I trials [1]: severe renal and hepatic toxicity
- aqueous solubility [2]: poor

Compound: Cc1ccc2nc(N)[nH]c(=O)c2c1Sc1ccncc1 [AG337]
- Ratio of IC50 values for mutant/wt cells ([3]; AG337, 1108F/clone (2) vs wild-type clone (2)): 7.0(2)
- Ratio of IC50 values for mutant/wt cells ([4]; AG337): 1.0(1)
- Ratio of IC50 values for mutant/wt cells ([5]; AG337): 1.0(1)
- Ratio of IC50 values for mutant/wt cells ([6]; AG337): 1.5(1)
- Ratio of IC50 values for mutant/wt cells ([7]; AG337): 5.5(1)
- Ratio of IC50 values for mutant/wt cells ([8]; AG337): 5.2(1)
- Ratio of IC50 values for mutant/wt cells ([9]; AG337): 4.5(1)
- Ratio of IC50 values for mutant/wt cells ([10]; AG337): 5.0(1)
- Ratio of IC50 values for mutant/wt cells ([11]; AG337): 40(1)
- resistance, IC50 values greater than wild-type transfectants [11]: 40 fold
- Ratio of IC50 values for mutant/wt cells ([12]; AG337): 12(1)
- resistance, IC50 values greater than wild-type transfectants [12]: 12 fold
- IC50 (HT1080 cells): 2100 nM
- TS activity in whole cells [13]: not totally inhibited
- HPPCFU-C colonies ([14]; AG337 1 × 10^−7 M): 0
- CFU-GM colonies ([14]; AG337 1 × 10^−8 M): 10
- CFU-GM colonies, % in parentheses ([14]; AG337 1 × 10^−8 M): 12%
- CFU-GM colonies ([14]; AG337 2 × 10^−7 M): 0
- HPPCFU-C colonies ([15]; AG337 1 × 10^−7 M): 0
- CFU-GM colonies ([15]; AG337 1 × 10^−8 M): 20
- CFU-GM colonies, % in parentheses ([15]; AG337 1 × 10^−8 M): 19%
- CFU-GM colonies ([15]; AG337 2 × 10^−7 M): 0
- HPPCFU-C colonies ([16]; AG337 1 × 10^−7 M): 8
- HPPCFU-C colonies, % in parentheses ([16]; AG337 1 × 10^−7 M): 6%
- CFU-GM colonies ([16]; AG337 1 × 10^−8 M): 60
- CFU-GM colonies, % in parentheses ([16]; AG337 1 × 10^−8 M): 42%
- CFU-GM colonies ([16]; AG337 2 × 10^−7 M): 12
- CFU-GM colonies, % in parentheses ([16]; AG337 2 × 10^−7 M): 8%
- GI50 ([17]; AG337, 1108A/clone (1) [175-1]): 30500 ± 3700 nM
- GI50 ([17]; AG337, 1108A/clone (2) [175-2]): 29000 ± 2500 nM
- GI50 ([17]; AG337, 1108A/clone (3) [175-3]): 76600 ± 2800 nM
- Ratio of IC50 values for mutant/wt cells ([18]; AG337, 1108A/clone (1) vs wild-type clone (2)): 80(2)^2
- Ratio of IC50 values for mutant/wt cells ([18]; AG337, 1108A/clone (2) vs wild-type clone (2)): 76(2)
- Ratio of IC50 values for mutant/wt cells ([18]; AG337, 1108A/clone (3) vs wild-type clone (2)): 200(2)
- biggest difference in IC50 values between clones ([18]; clones 175-2 and 175-3): less than 3 fold

Compound: O=c1[nH]cc(F)c(=O)[nH]1 [5-FU, 5-fluorouracil]
- CFU-C (Normal Bone Marrow cells; 10^−5 M 5-FU): 0
- CFU-C (Normal Bone Marrow cells; 10^−6 M 5-FU): 16
- CFU-C, % in parentheses (Normal Bone Marrow cells; 10^−6 M 5-FU): 10%
- HPPCFU-C (Normal Bone Marrow cells; 10^−6 M 5-FU): 0
- CFU-C ([19]; 10^−5 M 5-FU): 0
- CFU-C ([19]; 10^−6 M 5-FU): 91
- CFU-C, % in parentheses ([19]; 10^−6 M 5-FU): 54%
- HPPCFU-C ([19]; 10^−6 M 5-FU): 6
- HPPCFU-C, % in parentheses ([19]; 10^−6 M 5-FU): 14%
- CFU-C ([20]; 10^−5 M 5-FU): 10
- CFU-C, % in parentheses ([20]; 10^−5 M 5-FU): 6%
- CFU-C ([20]; 10^−6 M 5-FU): 117
- CFU-C, % in parentheses ([20]; 10^−6 M 5-FU): 72%
- HPPCFU-C ([20]; 10^−6 M 5-FU): 21
- HPPCFU-C, % in parentheses ([20]; 10^−6 M 5-FU): 40%

- GI50 ([21]; wild-type/clone (1) [161-1]): 0.029 ± 0.0003 nM
- GI50 ([21]; wild-type/clone (2) [161-2]): 0.0896 ± 0.0062 nM
- GI50 ([21]; wild-type/clone (3) [161-3]): 0.0286 ± 0.0002 nM
- Ratio of IC50 values for mutant/wt cells ([3]; FdUrd, 1108F/clone (2) vs wild-type clone (1)): 6.1(1)
- resistance, IC50 values greater than wild-type transfectants ([4]; F225W transfectants vs wild-type transfectants): 25 fold
- Ratio of IC50 values for mutant/wt cells ([4]; FdUrd): 25(1)
- Ratio of IC50 values for mutant/wt cells ([5]; FdUrd): 5.7(1)
- Ratio of IC50 values for mutant/wt cells ([6]; FdUrd): 1.0(1)
- Ratio of IC50 values for mutant/wt cells ([7]; FdUrd): 4.0(1)
- Ratio of IC50 values for mutant/wt cells ([8]; FdUrd): 13(1)
- Ratio of IC50 values for mutant/wt cells ([9]; FdUrd): 1.2(1)
- Ratio of IC50 values for mutant/wt cells ([10]; FdUrd): 5.7(1)
- resistance, IC50 values greater than wild-type transfectants [11]: 26 fold
- Ratio of IC50 values for mutant/wt cells ([11]; FdUrd): 26(1)
- Ratio of IC50 values for mutant/wt cells ([12]; FdUrd): 97(1)
- resistance, IC50 values greater than wild-type transfectants [12]: 97 fold
- GI50 ([17]; FdUrd, 1108A/clone (1) [175-1]): 1.4 ± 0.19 nM
- GI50 ([17]; FdUrd, 1108A/clone (2) [175-2]): 1.05 ± 0.18 nM
- GI50 ([17]; FdUrd, 1108A/clone (3) [175-3]): 1.37 ± 0.25 nM
Compound: O=c1[nH]c(=O)n([C@H]2C[C@H](O)[C@@H](CO)O2)cc1F [FdUrd, 5-fluoro-2′-deoxyuridine]
- Ratio of IC50 values for mutant/wt cells ([18]; FdUrd, 1108A/clone (1) vs wild-type clone (2)): 16(2)^2
- Ratio of IC50 values for mutant/wt cells ([18]; FdUrd, 1108A/clone (2) vs wild-type clone (2)): 12(2)
- Ratio of IC50 values for mutant/wt cells ([18]; FdUrd, 1108A/clone (3) vs wild-type clone (2)): 15(2)
- resistance, IC50 values greater than wild-type transfectants ([18]; I108A transfectants vs wild-type transfectants): 12 fold
